Source: patent US20250360185A1, “COMPOSITIONS COMPRISING PEDF-DERIVED SHORT PEPTIDES FOR THE TREATMENT OF DRY EYE DISEASES” (BRIM Biotechnology, Inc., priority 2022, published 2025)

Tested on: subjects with DED
Assay: Visual analog scale (VAS) ocular symptom ratings, clinical study with CAE model
Type: in vivo, human
Details: for VAS Burning/Stinging Change from Baseline, ANCOVA LS Mean Difference (SE), BRM421 OS − Placebo / VAS Burning/Stinging Change from Baseline, Two-Sample t-test Sample Mean Difference (SE), BRM421 OS − Placebo / VAS Eye Dryness Change from Baseline, ANCOVA LS Mean Difference (SE), BRM421 OS − Placebo / VAS Eye Dryness Change from Baseline, Two-Sample t-test Sample Mean Difference (SE), BRM421 OS − Placebo / VAS Photophobia Change from Baseline, ANCOVA LS Mean Difference (SE), BRM421 OS − Placebo / VAS Photophobia Change from Baseline, Two-Sample t-test Sample Mean Difference (SE), BRM421 OS − Placebo / VAS Burning/Stinging Change from Baseline, ANCOVA LS Mean (SE) / VAS Eye Dryness Change from Baseline, ANCOVA LS Mean (SE) / VAS Photophobia Change from Baseline, ANCOVA LS Mean (SE) / VAS Burning/Stinging Change from Baseline, Mean (SD) / VAS Eye Dryness Change from Baseline, Mean (SD) / VAS Photophobia Change from Baseline, Mean (SD): ITT; for VAS Burning/Stinging Change from Baseline, ANCOVA LS Mean (SE) / VAS Eye Dryness Change from Baseline, ANCOVA LS Mean (SE) / VAS Photophobia Change from Baseline, ANCOVA LS Mean (SE) / VAS Burning/Stinging Change from Baseline, Mean (SD) / VAS Eye Dryness Change from Baseline, Mean (SD) / VAS Photophobia Change from Baseline, Mean (SD): baseline last Pre-CAE measure; for VAS Burning/Stinging Change from Baseline, Mean (SD) / VAS Eye Dryness Change from Baseline, Mean (SD) / VAS Photophobia Change from Baseline, Mean (SD): 0-100 mm line
Experimental: A multi-center, randomized, double masked, placebo controlled clinical study was conducted to assess the safety and efficacy of BRM421 ophthalmic solution (OS) in subjects with DED using a controlled adverse environment (CAE®) model (Ora, Inc., Andover, MA, USA). CAE® uses controlled ocular surface stress to exacerbate the signs and symptoms of DED in a safe and controllable manner.
During the first visit (Day-7±1), the subjects were screened, evaluated before CAE®, exposed to CAE®, evaluated after CAE®, and started with the placebo run-in period (7±1 days). During the 7-day study run-in period (for the purpose of subject selection) prior to randomization, all subjects received Placebo OS bilaterally, three times daily (TID). During the second visit, subjects were evaluated before CAE®, exposed to CAE®, and evaluated after CAE®. These evaluations formed the baseline measurements. The subjects were then randomized into two groups to receive either BRM421 ophthalmic solution (OS) or Placebo OS (Vehicle) bilaterally three times daily (TID) for 14 days from Visit 2 to Visit 4.
During these visits, subjects were evaluated for symptom efficacy. Specifically, visual analog scale (VAS) was measured by asking subjects to rate each ocular symptom due to ocular dryness. Symptoms assessed include burning/stinging, itching, foreign body sensation, blurred vision, eye dryness, photophobia, and pain.

[1] = Visit 3, post-CAE evaluations as baselines

SLGAEQRTESIIHRALYYDLISSPDIHGT (listed as Homo sapiens) [BRM421, PEDF-derived short peptide, 29mer, residues 93-121; tested as BRM421 ophthalmic solution (OS)]
VAS burning/stinging compared to placebo (FIG. 4C, FIG. 4D) (DED and cataract, with or without cataract surgery): significant improvements | VAS burning/stinging, subjects with cataract surgery compared to subjects without cataract surgery (FIG. 4D versus FIG. 4C): more improvements | VAS Burning/Stinging Change from Baseline, ANCOVA LS Mean Difference (SE), BRM421 OS − Placebo (Visit 3 (Day 8)): −6.8 (2.31) mm | VAS Burning/Stinging Change from Baseline, Two-Sample t-test Sample Mean Difference (SE), BRM421 OS − Placebo (Visit 3 (Day 8)): −5.9 (2.58) mm | VAS Eye Dryness Change from Baseline, ANCOVA LS Mean Difference (SE), BRM421 OS − Placebo (Visit 3 (Day 8)): −5.3 (2.33) mm | VAS Eye Dryness Change from Baseline, Two-Sample t-test Sample Mean Difference (SE), BRM421 OS − Placebo (Visit 3 (Day 8)): −4.7 (2.53) mm | VAS Photophobia Change from Baseline, ANCOVA LS Mean Difference (SE), BRM421 OS − Placebo (Visit 3 (Day 8)): −4.5 (2.19) mm | VAS Photophobia Change from Baseline, Two-Sample t-test Sample Mean Difference (SE), BRM421 OS − Placebo (Visit 3 (Day 8)): −4.2 (2.33) mm | VAS Burning/Stinging Change from Baseline, ANCOVA LS Mean (SE) (Visit 3 (Day 8)): −9.8 (1.67) mm | VAS Eye Dryness Change from Baseline, ANCOVA LS Mean (SE) (Visit 3 (Day 8)): −9.4 (1.69) mm | VAS Photophobia Change from Baseline, ANCOVA LS Mean (SE) (Visit 3 (Day 8)): −6.2 (1.59) mm | VAS Burning/Stinging Change from Baseline, Mean (SD) (Visit 3 (Day 8)): −8.8 (20.35) mm | VAS Eye Dryness Change from Baseline, Mean (SD) (Visit 3 (Day 8)): −8.4 (19.22) mm | VAS Photophobia Change from Baseline, Mean (SD) (Visit 3 (Day 8)): −5.6 (15.49) mm | Mean changes from baseline in burning/stinging, eye dryness and photophobia compared to placebo (Visit 3, ITT Population, FIG. 2A): significant difference | VAS burning/stinging relative to placebo (FIG. 2B) [1]: significant improvement | VAS dryness relative to placebo (FIG. 2B) [1]: less significant improvement | VAS dryness and VAS burning/stinging relative to placebo (FIG. 2B) (Visit 3, pre-CAE evaluations as baselines): significant improvements | VAS Burning/Stinging Change from Baseline, ANCOVA LS Mean Difference (SE), BRM421 OS − Placebo (Visit 4 (Day 15)): −3.8 (2.58) mm | VAS Burning/Stinging Change from Baseline, Two-Sample t-test Sample Mean Difference (SE), BRM421 OS − Placebo (Visit 4 (Day 15)): −2.9 (2.85) mm | VAS Eye Dryness Change from Baseline, ANCOVA LS Mean Difference (SE), BRM421 OS − Placebo (Visit 4 (Day 15)): 0.8 (2.66) mm | VAS Eye Dryness Change from Baseline, Two-Sample t-test Sample Mean Difference (SE), BRM421 OS − Placebo (Visit 4 (Day 15)): 1.2 (2.80) mm | VAS Photophobia Change from Baseline, ANCOVA LS Mean Difference (SE), BRM421 OS − Placebo (Visit 4 (Day 15)): −3.5 (2.26) mm | VAS Photophobia Change from Baseline, Two-Sample t-test Sample Mean Difference (SE), BRM421 OS − Placebo (Visit 4 (Day 15)): −3.2 (2.40) mm | VAS Burning/Stinging Change from Baseline, ANCOVA LS Mean (SE) (Visit 4 (Day 15)): −10.0 (1.86) mm | VAS Eye Dryness Change from Baseline, ANCOVA LS Mean (SE) (Visit 4 (Day 15)): −9.2 (1.92) mm | VAS Photophobia Change from Baseline, ANCOVA LS Mean (SE) (Visit 4 (Day 15)): −7.8 (1.63) mm | VAS Burning/Stinging Change from Baseline, Mean (SD) (Visit 4 (Day 15)): −9.0 (21.26) mm | VAS Eye Dryness Change from Baseline, Mean (SD) (Visit 4 (Day 15)): −8.4 (21.48) mm | VAS Photophobia Change from Baseline, Mean (SD) (Visit 4 (Day 15)): −7.3 (16.50) mm | VAS dryness, burning/stinging and photophobia versus baseline (FIG. 2A) (Visits 3 and 4 relative to Visit 2 pre-CAE baseline): showed improvements over the baseline | Onset of effects (inferred from significant difference to placebo at Visit 3): relatively fast onset | VAS burning/stinging (FIG. 4B) (patients with both DED and cataract, pre-CAE and post-CAE evaluations): very significant improvements | VAS burning/stinging (FIG. 4A) (patients with only DED (without cataract), pre-CAE or post-CAE evaluations): no significant improvements | VAS dryness (FIG. 4G, FIG. 4H) (subjects with cataract regardless of the surgery status, pre-CAE and post-CAE evaluations): significant improvements
